Test results taken from ChEMBL document CHEMBL5247636, “Synthesis and antineoplastic activity of ethylene glycol phenyl aminoethyl ether derivatives as FOXM1 inhibitors” (Eur J Med Chem, 2022).

Columns and labels:
SK-OV-3 [1] = test: cells; conditions: Homo sapiens
Description: Antiproliferative activity against human SK-OV-3 cells assessed as inhibition of cell growth measured after 22 to 70 hrs by CCK-8 assay

HCT-116 = test: cells; conditions: Homo sapiens
Description: Antiproliferative activity against human HCT-116 cells assessed as inhibition of cell growth measured after 22 to 70 hrs by CCK-8 assay

HepG2 = test: cells; conditions: Homo sapiens
Description: Antiproliferative activity against human HepG2 cells assessed as inhibition of cell growth measured after 22 to 70 hrs by CCK-8 assay

A2780 = test: Cytotoxicity against human A2780 cells assessed as inhibition of cell growth measured after 24 hrs by CCK-8 assay; type: toxicity, cell-based; conditions: a2780, 24 h
[2] = Cytotoxicity against human FTE-187 cells assessed as inhibition of cell growth upto 50 uM measured after 24 to 48 hrs by CCK-8 assay; type: toxicity, cell-based; conditions: fte-187, 50 µM, time 24-48 hrs
SK-OV-3 [3] = test: Down regulation of PLK1 expression in human SK-OV-3 cells by Western blotting analysis; type: functional, cell-based; conditions: dose 0.1-10 µg/ml
SK-OV-3 [4] = test: Down regulation of CDC25B expression in human SK-OV-3 cells by Western blotting analysis; type: functional, cell-based; conditions: dose 0.1-10 µg/ml
SK-OV-3 [5] = test: Cytotoxicity against human SK-OV-3 cells assessed as inhibition of cell growth measured after 24 hrs by CCK-8 assay; type: toxicity, cell-based; conditions: sk-ov-3, 24 h
SK-OV-3 [6] = test: cells; conditions: Homo sapiens, SK-OV-3, 24 h
Description: Cytotoxicity against human SK-OV-3 cells expressing low FOXM1 assessed as inhibition of cell growth measured after 24 hrs by CCK-8 assay

| Compound | IC50 (SK-OV-3 [1]) | further results |
| --- | --- | --- |
| c1ncn(-c2ccc(OCCOCCNC3CCCC3)cc2)n1 | > 100 µM |  |
| Nc1ccccc1COc1ccc(OCCOCCNC2CCCC2)cc1 | 14 µM |  |
| c1ccc(COc2ccc(OCCOCCNC3CCCCCC3)cc2)cc1 | 7.46 µM |  |
| c1ccc2cc(OCCOCCNC3CCCC3)ccc2c1 | 40.6 µM |  |
| c1ccc(COc2ccc(OCCOCCOC3CCCC3)cc2)cc1 | > 100 µM |  |
| c1ccc(COc2ccc(COc3ccc(OCCOCCNC4CCCC4)cc3)cc2)cc1 | 10 µM |  |
| COc1ccc(OCCOCCNC2CCCC2)cc1 | 99.1 µM |  |
| c1ccc(COc2ccc(OCCOCCNc3ccncc3)cc2)cc1 | 20.6 µM |  |
| O=[N+]([O-])c1ccc(COc2ccc(OCCOCCNC3CCCC3)cc2)cc1 | 20.3 µM |  |
| O=[N+]([O-])c1ccccc1COc1ccc(OCCOCCNC2CCCC2)cc1 | 5.37 µM |  |
| c1cc2c(cc1OCCOCCNC1CCCC1)CCCC2 | 31.9 µM |  |
| Nc1c(C(=O)Nc2ccc(F)cc2)sc2nc(-c3cccs3)cc(C(F)(F)F)c12 | 51.4 µM | IC50 (HCT-116): 86.1 µM; IC50 (HepG2): 70.5 µM |
| c1ccc(COc2ccc(OCCOCCNc3cc[nH]c3)cc2)cc1 | 11.3 µM |  |
| c1ccc(COc2ccc(OCCOCCNC3CC3)cc2)cc1 | 47.2 µM |  |
| O=[N+]([O-])c1ccccc1COc1ccc(OCCOCCNC2CCCCC2)cc1 | 2.88 µM | IC50 (HCT-116): 11.1 µM; IC50 (HepG2): 25.5 µM |
| c1ccc(COc2ccc(OCCOCCNC3CCC3)cc2)cc1 | 25 µM |  |
| OCCOCCOCCOc1ccc(OCc2ccccc2)cc1 | 59.4 µM |  |
| CCOc1ccc(OCCOCCNC2CCCC2)cc1 | 90.5 µM |  |
| O=Cc1ccc(COc2ccc(OCCOCCNC3CCCC3)cc2)cc1 | 45 µM |  |
| CC(C)(C)OC(=O)n1ccc(NCCOCCOc2ccc(OCc3ccccc3)cc2)c1 | 13 µM |  |
| c1ccc(COc2ccc(OCCOCCNc3ccccc3)cc2)cc1 | > 100 µM |  |
| CN(C)CCOCCOc1ccc(OCc2ccccc2)cc1 | 11.9 µM |  |
| Clc1ccc(COc2ccc(OCCOCCNC3CCCCC3)cc2)cc1 | 2.65 µM | Activity (A2780): Toxic; IC50 (HCT-116): 2.69 µM; Activity [2]: Non-Toxic; Activity (SK-OV-3 [3]): Dose-Dependent Effect; Activity (SK-OV-3 [4]): Dose-Dependent Effect; Activity (SK-OV-3 [5]): Toxic; IC50 (SK-OV-3 [6]): 65.4 µM; IC50 (HepG2): 15.1 µM |
| c1ccc(COc2ccccc2OCCOCCNC2CCCC2)cc1 | 40.7 µM |  |
| c1ccc(COc2ccc(OCCOCCNC3CCOC3)cc2)cc1 (stereo not given) | 48 µM |  |
| COc1cc(OCCOCCNC2CCCC2)ccc1OCc1ccccc1 | 44.6 µM |  |
| c1ccc(COc2ccc(COc3ccc(OCCOCCNC4CCCCC4)cc3)cc2)cc1 | 8.08 µM | IC50 (HCT-116): 4.35 µM; IC50 (HepG2): 18.1 µM |

Continued, in another order:

| IC50 (SK-OV-3 [1]) | Compound | further results |
| --- | --- | --- |
| 15.7 µM | COc1ccc(COc2ccc(OCCOCCNC3CCCC3)cc2)cc1 |  |
| 7.67 µM | Clc1ccc(COc2ccc(OCCOCCNC3CCCC3)cc2)cc1 |  |
| 6.99 µM | COC(=O)c1ccc(COc2ccc(OCCOCCNC3CCCC3)cc2)cc1 |  |
| 45.5 µM | COC(=O)c1cccc(COc2ccc(OCCOCCNC3CCCC3)cc2)c1 |  |
| 10.8 µM | Nc1cccc(COc2ccc(OCCOCCNC3CCCC3)cc2)c1 |  |
| 31.7 µM | Nc1ccc(COc2ccc(OCCOCCNC3CCCC3)cc2)cc1 |  |
| 17.2 µM | Cc1ccc(COc2ccc(OCCOCCNC3CCCC3)cc2)cc1 |  |
| > 100 µM | O=C(O)c1ccccc1COc1ccc(OCCOCCNC2CCCC2)cc1 |  |
| > 100 µM | O=C(O)c1ccc(COc2ccc(OCCOCCNC3CCCC3)cc2)cc1 |  |
| 7.37 µM | c1ccc(COc2ccc(OCCOCCNC3CCCCC3)cc2)cc1 |  |
| 24.8 µM | c1ccc(COc2ccc(OCCOCCNC3CCCC3)cc2)cc1 | IC50 (HCT-116): 12.9 µM; IC50 (HepG2): 25.4 µM |
| > 100 µM | COC(=O)c1ccccc1COc1ccc(OCCOCCNC2CCCC2)cc1 |  |
| 15.4 µM | O=[N+]([O-])c1cccc(COc2ccc(OCCOCCNC3CCCC3)cc2)c1 |  |
| > 100 µM | O=C(O)c1cccc(COc2ccc(OCCOCCNC3CCCC3)cc2)c1 |  |
| 6.22 µM | COC(=O)c1ccc(COc2ccc(OCCOCCNC3CCCCC3)cc2)cc1 | IC50 (HCT-116): 5.3 µM; IC50 (HepG2): 30.3 µM |
